Source: patent US20220073536A1 (Rigel Pharmaceuticals, Inc., priority 2003, published 2022)

Legend:
[1] = test system: cultured human mast cells (CHMC); experiment: CHMC low cell density ionomycin activation: tryptase assay; assay type: cell-based; settings: 3 pt, read-out: LD Tryptase, CHMC, Iono, 3 pt
[2] = test system: cultured human mast cells (CHMC); experiment: CHMC low cell density IgE activation: tryptase assay; assay type: cell-based; settings: IgE activation
In short: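 Fluorogenic readout of tryptase released into the supernatant (30 min substrate incubation, room temperature) measures degranulation. Cells were plated at low density (1000–1500/well, varied by donor) and triggered with anti-IgE for 30 min at 37 °C.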

[3] = Homo sapiens, Mast cell, low cell density CHMC, tryptase
[4] = Homo sapiens, Mast cell, low cell density CHMC, tryptase, 3 pt, read-out: LD Tryptase, CHMC, IgE, 3 pt
[5] = Homo sapiens, Mast cell, low cell density CHMC, tryptase, 8 pt, read-out: LD Tryptase, CHMC, IgE, 8 pt
[6] = low cell density CHMC, tryptase
[7] = low cell density CHMC, tryptase, 3 pt, read-out: LD Tryptase, CHMC, IgE, 3 pt
[8] = Homo sapiens, Mast cell, low cell density
[9] = Homo sapiens, Mast cell, low cell density, 3 pt, read-out: LD Tryptase, CHMC, IgE, 3 pt
[10] = low cell density, 3 pt, read-out: LD Tryptase, CHMC, IgE, 3 pt
[11] = Homo sapiens, Mast cell, low cell density, 8 pt, read-out: LD Tryptase, CHMC, IgE, 8 pt

Row | SMILES | IC50 [1, 3] [µM] | IC50 [2, 4] [µM] | also measured
1 | COc1ccc(Nc2nc(Nc3ccc(-c4cnco4)cc3)ncc2F)cc1OC [Compound 422, N4-(3,4-Dimethoxyphenyl)-5-fluoro-N2-[4-(oxazol-5-yl)phenyl]-2,4-pyrimidinediamine] | > 10 | < 10 | IC50 [2, 5]: < 10 µM
2 | COc1ccc(Nc2nc(Nc3ccc(-c4ncco4)cc3)ncc2F)cc1OC [Compound 424] | > 10 | < 10 | 
3 | COc1ccc(Nc2ncc(F)c(Nc3ccc(OC)c(OC)c3)n2)cc1Cl [Compound 425, N2-(3-Chloro-4-methoxyphenyl)-N4-(3,4-dimethoxyphenyl)-5-fluoro-2,4-pyrimidinediamine] | > 10 | < 10 | IC50 [2, 5]: < 10 µM
4 | CC(=O)N1CCN(c2cccc(Nc3ncc(F)c(Nc4ccc5c(c4)OCCO5)n3)c2)CC1 [Compound 426] | > 10 | < 10 | IC50 [2, 5]: < 10 µM
5 | CC(=O)N1CCN(c2ccc(Nc3ncc(F)c(Nc4ccc5c(c4)OCCO5)n3)cc2)CC1 [Compound 427, N2-[4-(4-Acetylpiperazino)phenyl]-N4-(3,4-ethylenedioxyphenyl)-5-fluoro-2,4-pyrimidinediamine] | > 10 | < 10 | IC50 [2, 5]: < 10 µM
6 | COc1cc(Nc2nc(Nc3cccc(N4CCN(C(C)=O)CC4)c3)ncc2F)cc(OC)c1 [Compound 428, N2-[3-(4-Acetylpiperazino)phenyl]-N4-(3,5-dimethoxyphenyl)-5-fluoro-2,4-pyrimidinediamine] | > 10 | < 10 | 
7 | COc1ccc(Nc2nc(Nc3cccc(N4CCN(C(C)=O)CC4)c3)ncc2F)cc1OC [Compound 429, N2-[3-(4-Acetylpiperazino)phenyl]-N4-(3,4-dimethoxyphenyl)-5-fluoro-2,4-pyrimidinediamine] | > 10 | < 10 | 
8 | COc1ccc(Nc2nc(Nc3ccc(N4CCN(C(C)=O)CC4)cc3)ncc2F)cc1OC [Compound 430, N2-[4-(4-Acetylpiperazino)phenyl]-N4-(3,4-dimethoxyphenyl)-5-fluoro-2,4-pyrimidinediamine] | > 10 | < 10 | 
9 | CC(=O)N1CCN(c2cccc(Nc3ncc(F)c(Nc4ccc5c(c4)OC(F)(F)C(F)(F)O5)n3)c2)CC1 [Compound 431] |  |  | IC50 [1, 6]: > 10 µM; IC50 [2, 7]: < 10 µM; IC50 ([2]; low cell density CHMC, tryptase, 8 pt, read-out: LD Tryptase, CHMC, IgE, 8 pt): < 10 µM
10 | CC(=O)N1CCN(c2ccc(Nc3ncc(F)c(Nc4ccc5c(c4)OC(F)(F)C(F)(F)O5)n3)cc2)CC1 [Compound 432] |  |  | IC50 [1, 6]: > 10 µM; IC50 [2, 7]: < 10 µM
11 | COc1ccc(N(C)c2nc(Nc3cc(C)cc(C)c3)ncc2F)cc1OC [Compound 433] | > 10 | < 10 | 
12 | COc1cc(Nc2ncc(F)c(N(C)c3ccc(OC)c(OC)c3)n2)cc(OC)c1 [Compound 434] | > 10 | < 10 | 
13 | CCOC(=O)c1cc2cccc(Nc3ncc(F)c(N(C)c4ccc(OC)c(OC)c4)n3)c2[nH]1 [Compound 435, N4-(3,4-Dimethoxyphenyl)-N2-[2-(ethoxycarbonyl)indol-7-yl]-5-fluoro-N4-methyl-2,4-pyrimidinediamine] | > 10 | < 10 | 
14 | COc1ccc(N(C)c2nc(Nc3ccc4cc[nH]c4c3)ncc2F)cc1OC [Compound 436, N4-(3,4-Dimethoxyphenyl)-5-fluoro-N2-(indol-6-yl)-N4-methyl-2,4-pyrimidinediamine] | > 10 | < 10 | 
15 | COc1cc(Nc2nc(Nc3ccc(N4CCN(C(C)=O)CC4)cc3)ncc2F)cc(OC)c1 [Compound 437] | > 10 | < 10 | 
16 | COc1ccc(N(C)c2nc(Nc3cccc(-c4cnco4)c3)ncc2F)cc1OC [Compound 438, N4-(3,4-Dimethoxyphenyl)-5-fluoro-N4-methyl-N2-[3-(oxazol-5-yl)phenyl]-2,4-pyrimidinediamine] | > 10 | < 10 | IC50 [2, 5]: < 10 µM
17 | CNC(=O)COc1cccc(Nc2ncc(F)c(N(CC(=O)OC)c3ccc4c(c3)OCCO4)n2)c1 [Compound 446, N4-(3,4-Ethylenedioxyphenyl)-5-fluoro-N4-(methoxycarbonylmethyl)-N2-[3-(N-methylamino)carbonylmethyleneoxyphenyl]-2,4-pyrimidinediamine] |  |  | IC50 [1, 6]: > 10 µM; IC50 [2, 7]: < 10 µM
18 | CNC(=O)COc1cccc(Nc2ncc(F)c(N(C)c3ccc(OC)c(OC)c3)n2)c1 [Compound 447, N4-(3,4-Dimethoxyphenyl)-5-fluoro-N4-methyl-N2-[3-(N-methylamino)carbonylmethyleneoxyphenyl]-2,4-pyrimidinediamine] |  |  | IC50 [1, 6]: > 10 µM; IC50 [2, 7]: < 10 µM
19 | CNC(=O)c1cc(Nc2ncc(F)c(Nc3ccc(OC)c(Cl)c3)n2)ccc1Cl [Compound 451, N4-(3-Chloro-4-methoxyphenyl)-N2-[4-chloro-3-(N-methylamino)carbonylphenyl]-5-fluoro-2,4-pyrimidinediamine] |  |  | IC50 [1, 8]: < 10 µM; IC50 [2, 9]: < 10 µM
20 | CCOC(=O)C(C)(C)Oc1ccc(Nc2nc(Nc3ccc(Cl)c(C(=O)NC)c3)ncc2F)cc1Cl [Compound 452, N4-[3-Chloro-4-(ethoxycarbonyl-1,1-dimethylmethyleneoxy)phenyl]-N2-[4-chloro-3-(N-methylamino)carbonylphenyl]-5-fluoro-2,4-pyrimidinediamine] |  |  | IC50 ([1]; low cell density): < 10 µM; IC50 [2, 10]: < 10 µM
21 | CNC(=O)c1cc(Nc2ncc(F)c(N(C)c3ccc4c(c3)OCCO4)n2)ccc1Cl [Compound 453, N2-[4-Chloro-3-(N-methylamino)carbonylphenyl]-N4-(3,4-ethylenedioxyphenyl)-5-fluoro-N4-methyl-4-pyrimidinediamine] |  |  | IC50 ([1]; low cell density): > 10 µM; IC50 [2, 10]: < 10 µM
22 | CNC(=O)c1cc(Nc2ncc(F)c(N(C)c3ccc(OC)c(OC)c3)n2)ccc1Cl [Compound 454, N2-[4-Chloro-3-(N-methylamino)carbonylphenyl]-N4-(3,4-dimethoxyphenyl)-5-fluoro-N4-methyl-4-pyrimidinediamine] |  |  | IC50 ([1]; low cell density): > 10 µM; IC50 [2, 10]: < 10 µM
23 | CNC(=O)c1cc(Nc2ncc(F)c(Nc3ccc4c(c3)NC(=O)C(C)(C)O4)n2)ccc1Cl [Compound 455] |  |  | IC50 [1, 8]: > 10 µM; IC50 [2, 9]: < 10 µM; IC50 [2, 11]: < 10 µM
24 | CNC(=O)c1ccc(Nc2ncc(F)c(Nc3ccc4c(c3)NC(=O)C(C)(C)O4)n2)cc1Cl [Compound 456, N2-[3-Chloro-4-(N-methylamino)carbonylphenyl]-N4-(2,2-dimethyl-3-oxo-4H-benz[1,4]oxazin-6-yl)-5-fluoro-2,4-pyrimidinediamine] |  |  | IC50 [1, 8]: < 10 µM; IC50 [2, 9]: < 10 µM; IC50 [2, 11]: < 10 µM
25 | COc1cc(OC)cc(N(C)c2nc(Nc3ccc(OC)nc3OC)ncc2F)c1 [Compound 457] |  |  | IC50 [1, 8]: < 10 µM; IC50 [2, 9]: < 10 µM; IC50 [2, 11]: < 10 µM
26 | COc1ccc(Nc2ncc(F)c(N(C)c3ccc4c(c3)OCCO4)n2)c(OC)n1 [Compound 458] |  |  | IC50 [1, 8]: > 10 µM; IC50 [2, 9]: > 10 µM
27 | COc1cc(Nc2nc(Nc3ccc(OC)nc3OC)ncc2F)cc(OC)c1 [Compound 459] |  |  | IC50 [1, 8]: > 10 µM; IC50 [2, 9]: < 10 µM
28 | COc1ccc(Nc2ncc(F)c(Nc3ccc4c(c3)OCCO4)n2)c(OC)n1 [Compound 460] |  |  | IC50 [1, 8]: > 10 µM; IC50 [2, 9]: < 10 µM
29 | CNc1ncc(F)c(N(C)c2ccc3c(c2)OCCO3)n1 [Compound 461] |  |  | IC50 [1, 8]: > 10 µM; IC50 [2, 9]: > 10 µM
30 | CN(C)c1ncc(F)c(N(C)c2ccc3c(c2)OCCO3)n1 [Compound 462, N2-Dimethyl-N4-(3,4-ethylenedioxyphenyl)-5-fluoro-N4-methyl-2,4-pyrimidinediamine] |  |  | IC50 ([1]; low cell density): > 10 µM; IC50 [2, 10]: > 10 µM

Second part, led by results:

Row | IC50 [1, 3] [µM] | IC50 [2, 4] [µM] | SMILES | also measured
31 | > 10 | < 10 | COc1ccc(N(C)c2nc(Nc3ccc(-c4ncco4)cc3)ncc2F)cc1OC [Compound 440, N4-(3,4-Dimethoxyphenyl)-5-fluoro-N4-methyl-N2-[4-(oxazol-2-yl)phenyl]-2,4-pyrimidinediamine] | 
32 | > 10 | < 10 | COC(=O)CN(c1ccc2c(c1)OCCO2)c1nc(Nc2cc(C)cc(C)c2)ncc1F [Compound 441] | 
33 | > 10 | < 10 | COC(=O)CN(c1ccc2c(c1)OCCO2)c1nc(Nc2cc(OC)cc(OC)c2)ncc1F [Compound 442] | 
34 | > 10 | < 10 | COC(=O)CN(c1ccc2c(c1)OCCO2)c1nc(Nc2cccc(-c3cnco3)c2)ncc1F [Compound 443] | 
35 | > 10 | < 10 | COC(=O)CN(c1ccc2c(c1)OCCO2)c1nc(Nc2cccc(-c3ncco3)c2)ncc1F [Compound 444] | 
36 | > 10 | < 10 | COC(=O)CN(c1ccc2c(c1)OCCO2)c1nc(Nc2ccc(-c3ncco3)cc2)ncc1F [Compound 445] | 
37 | > 10 | < 10 | CNC(=O)c1cc(Nc2ncc(F)c(Nc3ccc4c(c3)OCCO4)n2)ccc1Cl [Compound 448] | IC50 [2, 5]: < 10 µM
38 | > 10 | < 10 | CNC(=O)c1cc(Nc2ncc(F)c(Nc3ccc(OC)c(OC)c3)n2)ccc1Cl [Compound 449, N2-[4-Chloro-3-(N-methylamino)carbonylphenyl]-N4-(3,4-dimethoxyphenyl)-5-fluoro-2,4-pyrimidinediamine] | 
39 | > 10 | < 10 | CNC(=O)c1cc(Nc2ncc(F)c(Nc3cc(OC)cc(OC)c3)n2)ccc1Cl [Compound 450] | 
